Results taken from patent publication EP4768487A1, “FUSED LACTAM RING COMPOUND AND USE THEREOF” (Chengdu Zenitar Biomedical Technology Co., Ltd., priority 2023, dated 2025).
Where two headings read alike, the source gives them in different places.

What was measured:
[1] = tested on: CD34+ hematopoietic stem and progenitor cells (hmPB34-P-SC); test: Hematological toxicity assay (CellTiter-Glo 2.0); type: cell-based; details: 120 h; 5 days of culture
Experimental: The next day, the cells were resuspended and seeded in a 96-well plate at a concentration of 1000 cells/well, and meanwhile, different concentrations of the drug were added for treatment, with 3 replicate wells set for each concentration. After 5 days of culture, the number of viable cells in each well was determined using a CellTiter-Glo 2.0 kit, followed by detection by a microplate reader.

[2] = biological target: T1, PARP1 (Homo sapiens, UniProt P09874); test: PARP1 enzyme assay (histone-coated plate, chemiluminescence); type: biochemical; details: PARP1 0.02 nM, DNA 0.8 nM, NAD+ 3.5 µM; read-out: PARP-1 IC50
T1 construct: purchased BPS 80501
T1 sequence (P09874 whole entry): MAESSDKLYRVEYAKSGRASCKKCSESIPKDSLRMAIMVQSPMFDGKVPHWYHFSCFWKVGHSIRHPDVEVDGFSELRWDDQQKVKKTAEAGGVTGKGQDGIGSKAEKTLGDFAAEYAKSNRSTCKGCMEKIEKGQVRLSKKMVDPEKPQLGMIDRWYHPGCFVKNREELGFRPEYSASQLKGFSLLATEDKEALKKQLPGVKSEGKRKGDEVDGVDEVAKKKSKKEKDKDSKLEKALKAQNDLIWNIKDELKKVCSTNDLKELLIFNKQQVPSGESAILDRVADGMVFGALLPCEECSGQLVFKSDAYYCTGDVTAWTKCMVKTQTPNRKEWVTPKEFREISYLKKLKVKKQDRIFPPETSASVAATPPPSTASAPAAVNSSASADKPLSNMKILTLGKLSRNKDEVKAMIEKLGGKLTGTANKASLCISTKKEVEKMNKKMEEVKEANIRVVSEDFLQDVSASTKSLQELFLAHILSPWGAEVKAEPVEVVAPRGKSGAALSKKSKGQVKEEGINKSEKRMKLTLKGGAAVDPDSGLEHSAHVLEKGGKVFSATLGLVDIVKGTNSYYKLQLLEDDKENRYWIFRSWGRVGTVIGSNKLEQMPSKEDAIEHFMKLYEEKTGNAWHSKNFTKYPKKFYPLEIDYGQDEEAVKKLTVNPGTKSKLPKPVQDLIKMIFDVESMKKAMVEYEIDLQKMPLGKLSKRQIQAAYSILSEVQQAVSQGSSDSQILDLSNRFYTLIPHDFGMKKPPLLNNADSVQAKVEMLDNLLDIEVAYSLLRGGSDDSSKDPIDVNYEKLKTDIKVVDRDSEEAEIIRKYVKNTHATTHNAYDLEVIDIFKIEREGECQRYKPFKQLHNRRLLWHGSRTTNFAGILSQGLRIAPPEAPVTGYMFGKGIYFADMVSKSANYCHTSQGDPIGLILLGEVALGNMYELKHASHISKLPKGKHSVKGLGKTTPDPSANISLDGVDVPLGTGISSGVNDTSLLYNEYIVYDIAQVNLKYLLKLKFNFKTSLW

[3] = tested on: BRCA-mutated MDA-MB-436 cells; test: Anti-proliferative activity against cells (CCK8): MDA-MB-436; type: cell-based; details: Homo sapiens, 72 h + 96 h culture
[4] = tested on: BRCA wild-type DLD-1 cells; test: Anti-proliferative activity against cells (CCK8): DLD-1; type: cell-based; details: Homo sapiens, 72 h + 96 h culture
How it was run: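 DLD-1 cells (1000/well) in RPMI-1640 with 10% FBS, treated 24 h after plating with PARPi at 0, 1 or 10 µM final. Cultured 72 h, medium exchanged with re-added PARPi, then a further 96 h; read-out by CCK8.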

[5] = biological target: T2, hERG potassium ion channel (Homo sapiens, UniProt Q12809); test: Inhibition of hERG potassium ion channel (Qpatch, CHO cells stably expressing hERG); type: cell-based; details: for inhibitory effects on the hERG potassium ion channel (in words): conclusion of Table 17; for inhibition at 2.5 min, 20 µM: human, CHO cells stably expressing hERG, read-out: Inhibition rate at 20 µM
T2 construct: expressed in transfected cells; host or cells: CHO cells
T2 sequence (Q12809 whole entry): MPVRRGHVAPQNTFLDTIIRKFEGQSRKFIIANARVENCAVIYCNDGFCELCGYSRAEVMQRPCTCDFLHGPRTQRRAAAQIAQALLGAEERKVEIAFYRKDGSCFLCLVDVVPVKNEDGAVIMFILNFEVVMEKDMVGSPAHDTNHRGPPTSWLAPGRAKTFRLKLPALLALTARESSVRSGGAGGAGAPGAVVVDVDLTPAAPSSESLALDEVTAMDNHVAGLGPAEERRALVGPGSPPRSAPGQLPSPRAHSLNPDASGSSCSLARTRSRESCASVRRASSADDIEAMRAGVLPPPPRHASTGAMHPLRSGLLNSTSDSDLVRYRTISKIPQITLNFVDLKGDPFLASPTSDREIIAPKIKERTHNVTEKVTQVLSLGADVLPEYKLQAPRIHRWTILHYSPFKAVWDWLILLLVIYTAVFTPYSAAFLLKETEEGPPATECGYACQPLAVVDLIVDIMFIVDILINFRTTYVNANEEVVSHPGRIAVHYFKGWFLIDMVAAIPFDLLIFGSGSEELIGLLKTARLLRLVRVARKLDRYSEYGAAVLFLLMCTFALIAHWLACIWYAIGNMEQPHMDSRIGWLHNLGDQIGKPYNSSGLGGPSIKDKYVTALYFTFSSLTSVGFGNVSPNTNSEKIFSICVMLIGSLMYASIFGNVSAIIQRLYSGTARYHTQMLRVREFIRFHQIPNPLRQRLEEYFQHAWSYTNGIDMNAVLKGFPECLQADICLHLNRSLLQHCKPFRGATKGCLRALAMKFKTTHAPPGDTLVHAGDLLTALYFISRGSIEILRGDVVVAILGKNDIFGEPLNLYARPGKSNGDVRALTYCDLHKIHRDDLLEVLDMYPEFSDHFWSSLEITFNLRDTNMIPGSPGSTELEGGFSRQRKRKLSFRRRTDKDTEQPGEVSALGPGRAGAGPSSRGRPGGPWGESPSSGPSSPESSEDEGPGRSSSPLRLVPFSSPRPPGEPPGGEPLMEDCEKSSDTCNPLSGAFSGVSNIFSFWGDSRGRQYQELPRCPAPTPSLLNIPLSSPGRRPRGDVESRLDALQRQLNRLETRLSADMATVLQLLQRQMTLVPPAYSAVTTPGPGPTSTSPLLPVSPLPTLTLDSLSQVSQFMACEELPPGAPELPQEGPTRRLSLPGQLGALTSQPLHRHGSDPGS
Experimental: Cell culture and treatment: CHO cells stably expressing hERG were cultured in a cell culture flask and incubated in an incubator with 5% CO2 at 37 °C. When the cell density reached 60%-80%, the cell culture medium was removed by pipetting. The cells were washed once with PBS, and then Detachin was added for detachment. After complete detachment, a culture medium was added for neutralization. The cells were then centrifuged, and the supernatant was removed by pipetting. A culture medium was further added for resuspension, and the cell density was adjusted to (2-5) × 10^6 cells/mL for later use.
Compound preparation: The compound stock solution was diluted with 100% DMSO. Specifically, 10 µL of the compound stock solution was added to 20 µL of DMSO, followed by a 3-fold serial dilution to obtain 6 concentrations. 4 µL of each of the 6 compound solutions at different concentrations was taken and added to 396 µL of an extracellular fluid, resulting in a 100-fold dilution to obtain 6 intermediate concentrations. Then, 80 µL of each of the 6 intermediate-concentration compound solutions was taken and added to 320 µL of an extracellular fluid, resulting in a 5-fold dilution to achieve the final test concentrations. The highest test concentration was 40 µM. […] DMSO at this concentration has no effect on the hERG potassium channel. During the compound preparation, the entire dilution process was completed by a Bravo instrument.
Electrophysiological recording process: The single-cell high-impedance sealing and whole-cell mode formation processes were all completed automatically by a Qpatch instrument. After achieving the whole-cell recording mode, the cells were clamped at -80 mV. Before a 5-second +40 mV depolarizing stimulus was applied, a 50-millisecond -50 mV prepulse voltage was first applied. The potential was then repolarized to -50 mV and held for 5 s, and finally returned to -80 mV. This voltage stimulation was applied every 15 s. After 2 min of recording, the extracellular fluid was administered, followed by recording for 5 min. Then, the compound administration process began, starting from the lowest test compound concentration. Each test concentration was applied for 2.5 min. After all the concentrations were applied consecutively, the positive control compound, 3 µM Cisapride, was administered. At least 3 cells (n ≥ 3) were tested for each concentration.
Data processing: Data analysis and processing were performed using GraphPad Prism 5.0 and Excel software. The IC50 of the compound was calculated using GraphPad Prism 5 software by equation fitting as follows: Y = Bottom + (Top−Bottom)/(1+10^(∧)((LogIC50−X)*HillSLope)) [formula] where X is the Log value of the test concentration of the test sample, Y is the inhibition percentage at the corresponding concentration, and Bottom and Top are the minimum and maximum inhibition percentages, respectively. Table 17. Results of inhibition of hERG potassium ion channel by compounds

[6] = Cerebrospinal fluid and plasma distribution in vivo; details: rat, male rats, intravenous 5 mg/kg, n = 1
Experimental: Experimental procedures: The compound was weighed out, a small amount of DMSO was added, and then a sodium chloride solution for injection was added to prepare a 5 mg·mL^-1 compound solution for later administration. […] 10 µL of the plasma and 10 µL of the cerebrospinal fluid were each added to a centrifuge tube, and 40 µL of acetonitrile containing 20 ng·mL^-1 internal standard SAHA was added for precipitation. […] The supernatant was collected and transferred to a sample vial for later analysis. Range of standard curve: 1-1000 ng·mL^-1.

[7] = cerebrospinal fluid, read-out: Cerebrospinal fluid

SMILES | IC50 [2] | IC50 [3] | IC50 [4] | IC50 [1] | inhibitory effects on the hERG potassium ion channel (in words) [5] | inhibition at 2.5 min, 20 µM [5] | concentration at 0.25 h [6, 7] | concentration at 2 h [6, 7] | concentration at 0.25 h ([6]; plasma, read-out: Plasma) | concentration at 2 h ([6]; plasma, read-out: Plasma)
[2H]C([2H])([C@H]1CCc2nc(C)c(=O)[nH]c2C1)N1CCN(c2ccc(C(=O)NC)nc2F)CC1 [Example 83, (S)-6-Fluoro-N-methyl-5-(4-((2-methyl-3-oxo-3,4,5,6,7,8-hexahydroquinoxalin-6-yl)methyl-d 2)piperazin-1-yl)picolinamide] | – | – | > 1000 nM | – | Conclusion: Compounds 2, 6, 45, 62, 67, 74, 83, 87, etc., of the present disclosure exhibited relatively weak inhibitory effects on the hERG potassium ion channel. | 0.92% | 86 ng/g | 0 ng/g | 1500 ng/mL | 28 ng/mL
CNC(=O)c1ccc(N2CCN(CC3Cc4[nH]c(=O)c(Cl)cc4CO3)CC2)c(F)n1 (stereo not drawn) [Example 64, 5-(4-((3-Chloro-2-oxo-1,5,7,8-tetrahydro-2H-pyrano[4,3-b]pyridin-7-yl)methyl)piperazin-1-yl)-6-fluoro-N-methylpicolinamide] | 50 to 500 nM | – | > 1000 nM | – | – | – | 102 ng/g | 0 ng/g | 1620 ng/mL | 503 ng/mL
CNC(=O)c1ccc(N2CCN(CC3COc4cc(C)c(=O)[nH]c4C3)CC2)c(F)n1 (stereo not drawn) [Example 101, 6-Fluoro-N-methyl-5-(4-((7-methyl-6-oxo-3,4,5,6-tetrahydro-2H-pyrano[3,2-b]pyridin-3-yl)methyl)piperazin-1-yl)picolinamide] | ≤ 50 nM | – | > 1000 nM | – | – | – | 52 ng/g | 8 ng/g | 2820 ng/mL | 592 ng/mL
CNC(=O)c1ccc(N2CCN(CC3Cc4[nH]c(=O)c(C)cc4CO3)CC2)c(F)n1 (stereo not drawn) [Example 39, 6-Fluoro-N-methyl-5-(4-((3-methyl-2-oxo-1,5,7,8-tetrahydro-2H-pyrano[4,3-b]pyridin-7-yl)methyl)piperazin-1-yl)picolinamide] | 50 to 500 nM | – | > 1000 nM | – | – | – | 103 ng/g | 26 ng/g | 8200 ng/mL | 4890 ng/mL
CCc1cc2c([nH]c1=O)CC(CN1CC=C(c3ccc(C(=O)NC)nc3F)CC1)OC2 (stereo not drawn) [Compound 6, 1'-((3-Ethyl-2-oxo-1,5,7,8-tetrahydro-2H-pyrano[4,3-b]pyridin-7-yl)methyl)-2-fluoro -N-methyl-1',2',3',6'-tetrahydro-[3,4'-bipyridine]-6-carbo xamide] | ≤ 50 nM | 1 nM | > 1000 nM | – | Conclusion: Compounds 2, 6, 45, 62, 67, 74, 83, 87, etc., of the present disclosure exhibited relatively weak inhibitory effects on the hERG potassium ion channel. | 7.97% | – | – | – | –

Further lines, with some results ahead:

IC50 [2] | IC50 [3] | IC50 [4] | SMILES | IC50 [1] | inhibitory effects on the hERG potassium ion channel (in words) [5] | inhibition at 2.5 min, 20 µM [5] | concentration at 0.25 h [6, 7] | concentration at 2 h [6, 7] | concentration at 0.25 h ([6]; plasma, read-out: Plasma) | concentration at 2 h ([6]; plasma, read-out: Plasma)
≤ 50 nM | 4.1 nM | > 1000 nM | Cc1nc2c([nH]c1=O)C[C@@H](CN1CCN(c3ccc(C(=O)NC4CC4)nc3F)CC1)CC2 [Example 81, (S)-N-Cyclopropyl-6-fluoro-5-(4-((2-methyl-3-oxo-3,4,5,6,7,8-hexahydroquinoxalin-6-yl)methyl)piperazin-1-yl)picolinamide] | > 1000 nM | – | – | – | – | – | –
≤ 50 nM | 7 nM | > 1000 nM | [2H]C([2H])([C@H]1CCc2nc(C)c(=O)[nH]c2C1)N1CCN(c2ccc(C(=O)NC)nc2Cl)CC1 [Example 85, (S)-6-Chloro-N-methyl-5-(4-((2-methyl-3-oxo-3,4,5,6,7,8-hexahydroquinoxalin-6-yl)methyl-d2)piperazin-1-yl)picolinamide] | > 1000 nM | – | – | – | – | – | –
≤ 50 nM | 3.5 nM | > 1000 nM | Cc1cc2c([nH]c1=O)CC(CN1CCN(c3ccc(C(=O)NC4CC4)nc3Cl)CC1)OC2 (stereo not drawn) [Example 62, 6-Chloro-N-cyclopropyl-5-(4-((3-methyl-2-oxo-1,5,7,8-tetrahydro-2H-pyrano[4,3-b]pyridin-7-yl)methyl)piperazin-1-yl)picolinamide] | – | Conclusion: Compounds 2, 6, 45, 62, 67, 74, 83, 87, etc., of the present disclosure exhibited relatively weak inhibitory effects on the hERG potassium ion channel. | 49.8% | – | – | – | –
≤ 50 nM | 3.9 nM | > 1000 nM | Cc1cc2c([nH]c1=O)CC(CN1CCN(c3ccc(C(=O)Nc4cnn(C)c4)nc3F)CC1)OC2 (stereo not drawn) [Example 77, 6-Fluoro-N-(1-methyl-1H-pyrazol-4-yl)-5-(4-((3-methyl-2-oxo-1,5,7,8-tetrahydro-2H-pyrano[4,3-b]pyridin-7-yl)methyl)piperazin-1-yl)picolinamide] | 307 nM | – | – | – | – | – | –
≤ 50 nM | 4 nM | > 1000 nM | CNC(=O)c1ccc(N2CCN(C[C@H]3CCc4nc(C)c(=O)[nH]c4C3)CC2)c(C)n1 [Example 47, (S)-N,6-Dimethyl-5-(4-((2-methyl-3-oxo-3,4,5,6,7,8-hexahydroquinoxalin-6-yl)methyl)piperazin-1-yl)picolinamide] | – | – | – | 64 ng/g | 13 ng/g | 1010 ng/mL | 43 ng/mL
≤ 50 nM | 8.5 nM | > 1000 nM | CNC(=O)c1ccc(N2CCN(CC3Cc4[nH]c(=O)c(SC)cc4CO3)CC2)c(C)n1 (stereo not drawn) [Example 87, N,6-Dimethyl-5-(4-((3-(methylthio)-2-oxo-1,5,7,8-tetrahydro-2H-pyrano[4,3-b]pyridin-7-yl)methyl)piperazin-1-yl)picolinamide] | – | Conclusion: Compounds 2, 6, 45, 62, 67, 74, 83, 87, etc., of the present disclosure exhibited relatively weak inhibitory effects on the hERG potassium ion channel. | 7.34% | – | – | – | –
≤ 50 nM | 6.5 nM | > 1000 nM | CNC(=O)c1ccc(N2CCN(C[C@H]3CCc4nc(C)c(=O)[nH]c4C3)CC2)c(Cl)n1 [Example 106, (S)-6-Chloro-N-methyl-5-(4-((2-methyl-3-oxo-3,4,5,6,7,8-hexahydroquinoxalin-6-yl)methyl)piperazin-1-yl)picolinamide] | > 1000 nM | – | – | – | – | – | –
